Assay results from patent US9024027B2, “Derivatives of 1-phenyl-2-pyridinyl alkyl alcohols as phosphodiesterase inhibitors” (Chiesi Farmaceutici S.p.A., priority 2011, dated 2015).
Where a name gives a salt, the structure may show the parent alone.

System: LPS-induced TNF-α release in peripheral blood mononuclear cells (PBMCs)
Assay: In vitro determination of PDE4 inhibitory activity in the PBMCs assay (LPS-induced TNF-α release)
Format: cell-based
Settings: PBMC; human PBMCs, LPS 3 ng/ml, 18 hours; read-out: PDE4 inhibition (IC50, 50% inhibition of LPS-induced TNF-α release)
Description: The assay, which is based on the known inhibitory activity exerted by PDE4 inhibitors on the lipopolyshaccarides (LPS)-induced tumour necrosis factor-alpha (TNF-α release in peripheral blood mononuclear cells (PBMCs), was performed according to a method previously described (Hatzelmann A et al., J. Pharmacol. Exp. Ther., 2001; 297:267-279; and Draheim R et al., J. Pharmacol. Exp. Ther., 2004; 308:555-563, both of which are incorporated herein by reference in their entireties. Cryopreserved human PBMCs, (100 μl/well) were incubated in 96-well plates (10^5 cells/well), for 30 minutes, in the presence or absence (50 microl) of the test compounds whose concentrations ranged from 10^−12 M to 10^−6 M or from 10^−13 M to 10^−7 M. Subsequently, LPS (3 ng/ml) was added. After 18 hours of incubation at 37° C. in a humidified incubator under an atmosphere of 95% air and 5% CO2, culture medium was collected and TNF-α measured by ELISA.
The results of the tested compounds, representatives of the invention, expressed as mean±95% confidence limits of the molar concentration of the test compound producing 50% inhibition of LPS-induced TNF-α release (IC50) are shown in the following Table: […]

| SMILES | IC50 |
| --- | --- |
| COc1cc2c(cc1OC)CN(CC(=O)O[C@@H](Cc1c(Cl)c[n+]([O-])cc1Cl)c1ccc(OC(F)F)c(OCC3CC3)c1)CC2 [Compound 105, (S)-3,5-dichloro-4-(2-(3-(cyclopropylmethoxy)-4-(difluoromethoxy)phenyl)-2-(2-(6,7-dimethoxy-3,4-dihydroisoquinolin-2(1H)-yl)acetoxy)ethyl)pyridine 1-oxide] | < 1 nM |
| CS(=O)(=O)Nc1ccc2c(c1)CC(=O)N2CC(=O)O[C@@H](Cc1c(Cl)c[n+]([O-])cc1Cl)c1ccc(OC(F)F)c(OCC2CC2)c1 [Compound 112, (S)-3,5-dichloro-4-(2-(3-(cyclopropylmethoxy)-4-(difluoromethoxy)phenyl)-2-(2-(5-(methylsulfonamido)-2-oxoindolin-1-yl)acetoxy)ethyl)pyridine 1-oxide] | < 1 nM |
| COc1ccc2c(c1)CC(=O)N2CC(=O)O[C@@H](Cc1c(Cl)c[n+]([O-])cc1Cl)c1ccc(OC(F)F)c(OCC2CC2)c1 [Compound 117, (S)-3,5-dichloro-4-(2-(3-(cyclopropylmethoxy)-4-(difluoromethoxy)phenyl)-2-(2-(5-methoxy-2-oxoindolin-1-yl)acetoxy)-ethyl)pyridine 1-oxide] | < 1 nM |
| CS(=O)(=O)Nc1ccc2c(c1)CCN2CC(=O)O[C@@H](Cc1c(Cl)c[n+]([O-])cc1Cl)c1ccc(OC(F)F)c(OCC2CC2)c1 [Compound 131, (S)-3,5-dichloro-4-(2-(3-(cyclopropylmethoxy)-4-(difluoromethoxy)phenyl)-2-(2-(5-(methylsulfonamido)indolin-1-yl)acetoxy)-ethyl)pyridine 1-oxide] | 1 to 10 nM |
| O=C(CN1C(=O)C(=O)c2ccc(N3CCOCC3)cc21)O[C@@H](Cc1c(Cl)c[n+]([O-])cc1Cl)c1ccc(OC(F)F)c(OCC2CC2)c1 [Compound 142, (S)-3,5-dichloro-4-(2-(3-(cyclopropylmethoxy)-4-(difluoromethoxy)phenyl)-2-(2-(6-morpholino-2,3-dioxoindolin-1-yl)acetoxy)ethyl)pyridine 1-oxide] | 1 to 10 nM |
| COc1cc2c(cc1OC)C(=O)N(CC(=O)O[C@@H](Cc1c(Cl)c[n+]([O-])cc1Cl)c1ccc(OC(F)F)c(OCC3CC3)c1)C2=O [Compound 156, (S)-3,5-dichloro-4-(2-(3-(cyclopropylmethoxy)-4-(difluoromethoxy)phenyl)-2-(2-(5,6-dimethoxy-1,3-dioxoisoindolin-2-yl)acetoxy)ethyl)pyridine 1-oxide] | < 1 nM |
| CS(=O)(=O)Nc1cccc2c1C(=O)N(CC(=O)O[C@@H](Cc1c(Cl)c[n+]([O-])cc1Cl)c1ccc(OC(F)F)c(OCC3CC3)c1)C2=O [Compound 162, (S)-3,5-dichloro-4-(2-(3-(cyclopropylmethoxy)-4-(difluoromethoxy)phenyl)-2-(2-(4-(methylsulfonamido)-1,3-dioxoisoindolin-2-yl)acetoxy)ethyl)pyridine 1-oxide] | < 1 nM |
| CS(=O)(=O)Nc1ccc2c(c1)C(=O)N(CC(=O)O[C@@H](Cc1c(Cl)c[n+]([O-])cc1Cl)c1ccc(OC(F)F)c(OCC3CC3)c1)C2=O [Compound 167, (S)-3,5-dichloro-4-(2-(3-(cyclopropylmethoxy)-4-(difluoromethoxy)phenyl)-2-(2-(5-(methylsulfonamido)-1,3-dioxoisoindolin-2-yl)acetoxy)ethyl)pyridine 1-oxide] | < 1 nM |
| O=C(CN1C(=O)c2ccc(NO)cc2C1=O)O[C@@H](Cc1c(Cl)c[n+]([O-])cc1Cl)c1ccc(OC(F)F)c(OCC2CC2)c1 [Compound 169, (S)-3,5-dichloro-4-(2-(3-(cyclopropylmethoxy)-4-(difluoromethoxy)phenyl)-2-(2-(5-(hydroxyamino)-1,3-dioxoisoindolin-2-yl)acetoxy)ethyl)pyridine 1-oxide] | < 1 nM |
| O=C(CN1C(=O)c2cccc(NO)c2C1=O)O[C@@H](Cc1c(Cl)c[n+]([O-])cc1Cl)c1ccc(OC(F)F)c(OCC2CC2)c1 [Compound 170] | < 1 nM |
| COCC(=O)Nc1cccc2c1C(=O)N(CC(=O)O[C@@H](Cc1c(Cl)c[n+]([O-])cc1Cl)c1ccc(OC(F)F)c(OCC3CC3)c1)C2=O [Compound 173, (S)-3,5-dichloro-4-(2-(3-(cyclopropylmethoxy)-4-(difluoromethoxy)phenyl)-2-(2-(4-(2-methoxyacetamido)-1,3-dioxoisoindolin-2-yl)acetoxy)ethyl)pyridine 1-oxide] | < 1 nM |
| CS(=O)(=O)N(CCN1CCOCC1)c1cccc2c1C(=O)N(CC(=O)O[C@@H](Cc1c(Cl)c[n+]([O-])cc1Cl)c1ccc(OC(F)F)c(OCC3CC3)c1)C2=O [Compound 176, (S)-3,5-dichloro-4-(2-(3-(cyclopropylmethoxy)-4-(difluoromethoxy)phenyl)-2-(2-(4-(N-(2-morpholinoethyl)methylsulfonamido)-1,3-dioxoisoindolin-2-yl)acetoxy)ethyl)pyridine 1-oxide 2,2,2-trifluoroacetic acid salt] | 1 to 10 nM |
| CS(=O)(=O)N(CCN1CCOCC1)c1ccc2c(c1)C(=O)N(CC(=O)O[C@@H](Cc1c(Cl)c[n+]([O-])cc1Cl)c1ccc(OC(F)F)c(OCC3CC3)c1)C2=O [Compound 182, (S)-3,5-dichloro-4-(2-(3-(cyclopropylmethoxy)-4-(difluoromethoxy)phenyl)-2-(2-(5-(N-(2-morpholinoethyl)methylsulfonamido)-1,3-dioxoisoindolin-2-yl)acetoxy)ethyl)pyridine 1-oxide 2,2,2 trifluoroacetic acid salt] | < 1 nM |
| CS(=O)(=O)N(CCN1CCCC1)c1ccc2c(c1)C(=O)N(CC(=O)O[C@@H](Cc1c(Cl)c[n+]([O-])cc1Cl)c1ccc(OC(F)F)c(OCC3CC3)c1)C2=O [Compound 183] | < 1 nM |
| CS(=O)(=O)N(Cc1cccnc1)c1ccc2c(c1)C(=O)N(CC(=O)O[C@@H](Cc1c(Cl)c[n+]([O-])cc1Cl)c1ccc(OC(F)F)c(OCC3CC3)c1)C2=O [Compound 186] | < 1 nM |
| CS(=O)(=O)N(CCN1CCCCC1)c1ccc2c(c1)C(=O)N(CC(=O)O[C@@H](Cc1c(Cl)c[n+]([O-])cc1Cl)c1ccc(OC(F)F)c(OCC3CC3)c1)C2=O [Compound 189, (S)-3,5-dichloro-4-(2-(3-(cyclopropylmethoxy)-4-(difluoromethoxy)phenyl)-2-(2-(1,3-dioxo-5-(N-(2-(piperidin-1-yl)ethyl)methylsulfonamido)isoindolin-2-yl)acetoxy)ethyl)pyridine 1-oxide] | > 10 nM |
| CS(=O)(=O)N(Cc1ccccn1)c1ccc2c(c1)C(=O)N(CC(=O)O[C@@H](Cc1c(Cl)c[n+]([O-])cc1Cl)c1ccc(OC(F)F)c(OCC3CC3)c1)C2=O [Compound 190] | < 1 nM |
| Cc1noc(C)c1CN(c1ccc2c(c1)C(=O)N(CC(=O)O[C@@H](Cc1c(Cl)c[n+]([O-])cc1Cl)c1ccc(OC(F)F)c(OCC3CC3)c1)C2=O)S(C)(=O)=O [Compound 191] | < 1 nM |
| COc1ccnc(CN(c2ccc3c(c2)C(=O)N(CC(=O)O[C@@H](Cc2c(Cl)c[n+]([O-])cc2Cl)c2ccc(OC(F)F)c(OCC4CC4)c2)C3=O)S(C)(=O)=O)c1 [Compound 194] | 1 to 10 nM |
| CN1CCN(CCN(c2ccc3c(c2)C(=O)N(CC(=O)O[C@@H](Cc2c(Cl)c[n+]([O-])cc2Cl)c2ccc(OC(F)F)c(OCC4CC4)c2)C3=O)S(C)(=O)=O)CC1 [Compound 213, (S)-3,5-Dichloro-4-(2-(3-(cyclopropylmethoxy)-4-(difluoromethoxy)-phenyl)-2-(2-(5-(N-(2-(4-methylpiperazin-1-yl)ethyl)methylsulfonamido)-1,3-dioxoisoindolin-2-yl)acetoxy)ethyl)pyridine 1-oxide] | < 1 nM |
| CC(=O)N1CCN(CCN(c2ccc3c(c2)C(=O)N(CC(=O)O[C@@H](Cc2c(Cl)c[n+]([O-])cc2Cl)c2ccc(OC(F)F)c(OCC4CC4)c2)C3=O)S(C)(=O)=O)CC1 [Compound 214] | < 1 nM |
| CS(=O)(=O)N(CCN1CCSCC1)c1ccc2c(c1)C(=O)N(CC(=O)O[C@@H](Cc1c(Cl)c[n+]([O-])cc1Cl)c1ccc(OC(F)F)c(OCC3CC3)c1)C2=O [Compound 215] | < 1 nM |
| CS(=O)(=O)N(CCN1CCOCC1)c1ccc2c(ccn2CC(=O)O[C@@H](Cc2c(Cl)c[n+]([O-])cc2Cl)c2ccc(OC(F)F)c(OCC3CC3)c2)c1 [Compound 230, (S)-3,5-dichloro-4-(2-(3-(cyclopropylmethoxy)-4-(difluoromethoxy)phenyl)-2-(2-(5-(N-(2-morpholinoethyl)methylsulfonamido)-1H-indol-1-yl)acetoxy)ethyl)pyridine 1-oxide hydrochloride] | < 1 nM |
| CS(=O)(=O)N(CCN1CCOCC1)c1cccc2c1ccn2CC(=O)O[C@@H](Cc1c(Cl)c[n+]([O-])cc1Cl)c1ccc(OC(F)F)c(OCC2CC2)c1 [Compound 233, (S)-3,5-dichloro-4-(2-(3-(cyclopropylmethoxy)-4-(difluoromethoxy)phenyl)-2-(2-(4-(N-(2-morpholinoethyl)methylsulfonamido)-1H-indol-1-yl)acetoxy)ethyl)pyridine 1-oxide] | 1 to 10 nM |
| CS(=O)(=O)N(CCN1CCOCC1)c1ccc2c(c1)C(=O)C(=O)N2CC(=O)O[C@@H](Cc1c(Cl)c[n+]([O-])cc1Cl)c1ccc(OC(F)F)c(OCC2CC2)c1 [Compound 240, (S)-3,5-dichloro-4-(2-(3-(cyclopropylmethoxy)-4-(difluoromethoxy)phenyl)-2-(2-(5-(N-(2-morpholinoethyl)methylsulfonamido)-2,3-dioxoindolin-1-yl)acetoxy)ethyl)pyridine 1-oxide] | < 1 nM |
